From patent US20130137728A1, “Compositions and Methods for the Treatment of Degenerative Diseases” (MUSC Foundation For Research And Development, priority 2010, published 2013)
Entries after “also recorded” stand apart in the source; their conditions may differ. Non-standard residues stand in square brackets, D forms with d. Residues, ends and D or L forms follow the SMILES beside them. Nle = CCCC[C@H](N)C(=O)O

How the values were obtained:
661W cells [1] = assay: XF24 assay of stressor effects on respiratory capacity (OCR, FCCP response); assay type: cell-based, mouse; conditions: for mitochondrial capacity measured from the FCCP response: 30 min after treatment; for respiratory / mitochondrial capacity (FCCP-uncoupled OCR): IBMX 1.0 mM in FIG. 19
Experimental: (§1) 28. FIG. 17. Calcium and oxidative stress attenuate mitochondrial capacity. Shown are 661W cell OCR responses to 1 μM FCCP after treatment with listed concentrations of (A) A23187 and (B) tBuOOH. In A OCR rates are given as pmol/min, in B the rates for each well have been normalized to the basal rates measured prior to FCCP (which standardizes comparisons between data measured on different days). 661W cells analyzed by XF24 were incubated for 24 h and viability determined using ethidium bromide/acridine orange. Images of cells treated with (C) 1 μM A23187 and (D) control represent 47% and >95% viability.
30. FIG. 19. Mild calcium or oxidative stress reduces metabolic capacity in a photoreceptor cell line. (Calcium stress, left panel) 661W cells were treated with vehicle control (dark blue) or 1.0 mM IBMX (turquoise), followed by treatment with 1 μM FCCP. […] (Oxidant stress, right panel)
(§2) 257. As shown in FIG. 1 and FIG. 2 below, compounds CB11, CB11a, CB11b, CB11c, CB11d and IBMX (see FIG. 1); compounds CB12, CB12a, CB12b, CB12c, CB12d and IBMX (see FIG. 2) were tested against the calcium-induced mitochondrial damage assay. IBMX is a membrane-permeable inhibitor of β-phosphodiesterase which results in a buildup of cGMP. An excess of cGMP increases the number of cGMP-gated cation channels in an open configuration, allowing an influx of Ca2+ into the cell, leading to mitochondrial damage and eventual cell death.
268. In preliminary experiments the energy metabolism of 661W cells using the XF24. 661W cells were analyzed and produce large amounts of lactic acid from glucose oxidation [Winkler B S, Starnes C A, Sauer M W, Firouzgan Z, Chen S C: Cultured retinal neuronal cells and Muller cells both show net production of lactate. Neurochem Int 2004, 45(2-3):311-320]. […] To examine whether the metabolic responses were predictive of cell death due to calcium or oxidant stress, the cells were exposed to calcium ionophore A23187 or the oxidant tert-butylhydroperoxide (tBuOOH) on the XF24 instrument for 30 min after which some of the treated cells were exposed to the protonophore FCCP to uncouple the mitochondrial membrane potential. The uncoupling attenuates ATP production and causes the mitochondria to dramatically increase oxygen consumption in an attempt to recover the lost ATP production capacity. The increase in oxygen consumption is a measure of the total mitochondrial capacity or reserve.
271. In preliminary studies, the direct oxidant tert-butylhydroperoxide (tBuOOH) was used to induce oxidant stress and the agent A23187, a calcium ionophore that binds to and carries Ca^2+ across cellular membranes, including mitochondrial membranes (Abbott, B. J., Fukuda, D. S., Dorman, D. E., Occolowitz, J. L., Debono, M., and Farhner, L. (1979) Antimicrob. Agents Chemother. 16(6), 808-812). Because A23187 rapidly increases intracellular and intra-mitochondrial calcium concentrations, it triggers Ca^2+-mediated programmed cell death (2. Orrenius, S., Zhivotovsky, B., and Nicotera, P. (2003) Nat. Rev. Mol. Cell. Biol. 4, 552-565; Hajnóczky, G., Davies, E., and Madesh, M. (2003) Biochem. Biophys. Res. Commun. 304, 445-454). One could argue that these two agents are akin to hammers rather than the more subtle, chronic oxidant and calcium stressors seen in degenerative processes. The XF24 assay was validated using two more physiologically relevant stressors. To induce calcium stress, 3-Isobutyl-1-methyl xanthine (IBMX), a non-selective phosphodiesterase (PDE) inhibitor was used (4. Zhang, X., Feng, Q., and Cote, R. H. (2005) Invest. Ophthalmol. Vis. Sci. 46(9), 3060-3066). Inhibition of PDEs causes increases in the intracellular cAMP and cGMP concentrations leading to slow activation cGMP-gated cation channels and an increase of Ca^2+ flux into the cell (5. Yarfitz, S., and Hurley, J. B. (1994) J. Biol. Chem. 269(20), 14329-14332; Koutalos, Y., and Yau, K.-W. (1996) Trends Neurosci. 19, 73-81). […]

661W cells [2] = assay: Calcium-induced mitochondrial damage assay (IBMX, OCR on Seahorse XF24); assay type: cell-based, mouse; conditions: pretreatment with 1 μM for 1 h prior to addition of IBMX
Experimental: 32. FIG. 21. Secondary screening of neuroprotective agents discovered from library screening. The 661W cells were pretreated for 1 h with lead compounds, CB10-CB12 (1 μM), prior to treatment with 600 μM IBMX. The basal and uncoupled OCR rates were measured.
as §2
274. […] A higher stringency for hit selection than is commonly used was performed to avoid the less productive process of filtering through a large number of poor leads. It is notable that the complete ChemBridge library contains over 700,000 molecules that are searchable based on chemical structure, physicochemical properties, etc. To identify the active species present in the initial pool of 12 compounds were screened and then chemical similarity searches on the larger 700,000 member library was performed to identify other molecules that define pharmacophores. This strategy has more efficiently lead to agents that block retinal degeneration. Also, this strategy enabled quick identification of a small number of agents that that were moved into more sophisticated cellular and physiological models so as to better validate the mechanisms. For example, in the high-throughput screen a very toxic, non-specific calcium ionophore assay was used which gives a rather broad readout of cell “viability”. In the secondary assays the specificity and stringency were increased via use of more specific calcium stressor, 3-isobutyl-1-methylxanthine (IBMX) and a more relevant metabolic read-out, loss of respiratory capacity as measured from the attenuation of the uncoupled respiratory rate as measured with the Seahorse instrument. This assay format was used to evaluate the 12 initial lead compounds and are pleased to report that several of these agents do indeed protect against loss in respiratory capacity due to IBMX exposure.

661W cells [3] = assay: A23187 viability screen (MTS assay); assay type: cell-based, mouse; conditions: 50 μM, 1 μM A23187, 24 hours
Text: 273. ChemBridge, Inc. has a large (>700,000) commercially available chemical library and a DIVERSet library was obtained, which is a subset of compounds selected for diversity and favorable drug-like properties. Because the DIVERSet library is much too large for lower throughput, high-content screens, single end-point assays amenable to high-throughput were developed and disclosed herein. […] A viability assay using treatments with A23187 to search for molecules in the library that protect from acute calcium toxicity was developed and disclosed herein. The concentration of A23187 was selected to give about 50% death and pools that protected against death were identified. The assay format was optimized and validated using calpeptin, a […] as a positive control. In brief, 661W cells were maintained in DMEM supplemented with 10% FBS. For the assay, 100 μL of 70,000 cells/mL cells were seeded into each well of 96 well plates using DMEM supplemented with 5% FBS. Cells were then allowed to grow to confluency for 48 hours. Library compounds were added in 2 μL containing 10 compounds at 20 μM each. Ionophore A23187 was then added in 1 μL for a final concentration of 1 μM and after 24 hours cells were analyzed for viability using the MTS assay according to the manufactures protocol (Promega CellTiter 96® Cat.#G5421). […]

rd1 photoreceptors = assay: rd1 mouse retinal organ culture assay (retina-RPE explants, photoreceptor row count); assay type: cell-based
[4] = Viability of stressor-treated cells by dye exclusion 24 h after treatment; assay type: cell-based; conditions: mouse; 661W cells; 1 μM A23187; incubated 24 h; ethidium bromide/acridine orange
Experimental: as §1
269. The cells were then returned to the incubator and analyzed for cell viability via dye exclusion 24 h after treatment (FIGS. 17C,D). […] In addition, the higher concentrations produced profound changes in metabolic phenotype as evidenced in the cell's responses to the uncoupler FFCP. […] In both cases, reduced OCR and ECAR values are predictive of cell death although at intermediate concentrations, where cell death is still occurring, the ECAR rates actually increase, particularly for tBuOOH treatments.

661W cells [5] = assay: XF24 assay of stressor effects on respiratory capacity (OCR, FCCP response); assay type: cell-based, mouse; conditions: 661W cells treated with 1 μM IBMX for 20 min

Question: Which “mitochondrial capacity measured from the FCCP response” value (661W cells [1]) does the source give for `CC(C)(C)OO` [tBuOOH, tert-butylhydroperoxide] here?
Answer: significant loss of mitochondrial capacity

Question: With `CC(=O)Nc1cccc(NC(=O)c2sc(-c3cccnc3)nc2C)c1` [CB12c] as the compound, how does the “basal and maximal OCR (oxygen consumption rate)” value (from here on “basal and maximal OCR”) (661W cells [2]) read?
Answer: improvement of both basal and maximal OCR

Question: For `O=C(CC1(O)C(=O)N(CCc2ccccc2)c2ccc(Cl)cc21)c1ccccn1` (stereo not shown) [CB11c], which “basal and maximal OCR” value (661W cells [2]) is on record?
Answer: improvement of both basal and maximal OCR

Question: For `CCOC(=O)CN1C(=O)C(O)(CC(=O)c2ccccn2)c2ccccc21` (stereo not shown) [CB11d], which “basal and maximal OCR” value (661W cells [2]) is on record?
Answer: improvement of both basal and maximal OCR

Question: For `Cc1nc(-c2cccnc2)sc1C(=O)Nc1ccc(C(N)=O)cc1` [CB12d], which “basal and maximal OCR” value (661W cells [2]) is on record?
Answer: improvement of both basal and maximal OCR

Question: With `CCCC[C@@H](C=O)NC(=O)[C@H](CC(C)C)NC(=O)[C@H](CC(C)C)NC(C)=O` [Calpain Inhibitor I] (Ac-Leu-Leu-[Nle]-aldehyde) as the compound, how does the “reversal of ionophore A23187 effects on viability” value (661W cells [3]) read?
Answer: able to reverse ionophore effects

Question: With `COC(=O)c1ccccc1NC(=O)c1sc(-c2cccnc2)nc1C` [CB12b] as the compound, how does the “basal and maximal OCR” value (661W cells [2]) read?
Answer: improvement of both basal and maximal OCR

Question: With `O=C(CC1(O)C(=O)N(CCc2ccccc2)c2ccccc21)c1cccnc1` (stereo not shown) [CB11b] as the compound, how does the “basal and maximal OCR” value (661W cells [2]) read?
Answer: improvement of both basal and maximal OCR

Question: For `CCCC[C@@H](C=O)NC(=O)[C@H](CC(C)C)NC(=O)OCc1ccccc1` [calpeptin], which “rows of photoreceptors (average)” value (rd1 photoreceptors; rd1 mouse organ cultures exposed to 1 mM from P11 to P21) is on record?
Answer: 3.3±0.3 rows of photoreceptors

Question: What about the “rows of photoreceptors remaining at P21” value (rd1 photoreceptors; rd1 retina-RPE sandwich cultures P10 through P21, quantified from images) of the same compound?
Answer: about 3.5 rows

Question: With `CNc1ccc2oc(C[C@H]3O[C@@]4(CC[C@H]3C)O[C@H]([C@H](C)C(=O)c3ccc[nH]3)[C@H](C)C[C@H]4C)nc2c1C(=O)O` [A23187] as the compound, how does the “mitochondrial capacity measured from the FCCP response” value (661W cells [1]) read?
Answer: significant loss of mitochondrial capacity

Question: What about the viability at 24 h, 1 μM [4] of the same compound?
Answer: 47%

Question: What does the source list for `C[n+]1ccc(-c2cc[n+](C)cc2)cc1` [paraquat]?
Answer: effect on basal respiration rates (661W cells [1]): little or no direct effect on basal respiration rates; respiratory / mitochondrial capacity (FCCP-uncoupled OCR) (661W cells [1]): same types of loss in mitochondrial capacity

Question: With `CC(C)Cn1c(=O)n(C)c(=O)c2[nH]cnc21` [IBMX, 3-Isobutyl-1-methyl xanthine] as the compound, how does the “effect on basal respiration rates” value (661W cells [1]) read?
Answer: little or no direct effect on basal respiration rates

Question: And the “basal and uncoupled OCR relative to untreated control” value (661W cells [1]; 600 μM IBMX)?
Answer: attenuates basal and uncoupled OCR

Question: And the “decrease in both basal and maximal (FCCP-uncoupled) respiratory capacity” value (661W cells [1]; 500-600 μM IBMX)?
Answer: ~50%

Question: And the “respiratory / mitochondrial capacity (FCCP-uncoupled OCR)” value (661W cells [1])?
Answer: diminished respiratory capacity compared to control; also recorded: same types of loss in mitochondrial capacity

Question: What about the “loss in metabolic capacity as measured from the FCCP response” value (661W cells [5]) of the same compound?
Answer: ~50%
